Measured values from patent publication US20260262643A1, “HERBICIDAL BENZOXAZINES” (FMC CORPORATION, priority 2022, published 2026).

Legend:
barnyardgrass [1] = assay: Test C preemergence; assay type: in vivo, Echinochloa crusgalli; conditions: 0 to 100 scale (0 no effect, 100 complete control); for Plant response rating, Barnyardgrass: Preemergence, 500 g ai/ha, visual rating after 10 days; for Barnyardgrass plant response rating: Test C, preemergence, 125 g ai/ha
Method in brief: (§1)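 Visual injury score, 0–100 (100 = complete control), taken 10 days after treatment relative to untreated controls. Pre: directed spray onto soil over sown seeds. Post: foliar spray at one- to two-leaf stage, 2–10 cm. Solvent/surfactant formulation; loam–sand soil; greenhouse.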

blackgrass [2] = assay: Test C preemergence; assay type: in vivo, Alopecurus myosuroides; conditions: 0 to 100 scale (0 no effect, 100 complete control); for Plant response rating, Blackgrass: Preemergence, 500 g ai/ha, visual rating after 10 days; for Blackgrass plant response rating: Test C, preemergence, 125 g ai/ha
Method in brief: as §1

corn [3] = assay: Test C preemergence; assay type: in vivo, Zea mays; conditions: preemergence, 0 to 100 scale (0 no effect, 100 complete control)
Method in brief: as §1

green foxtail [4] = assay: Test C preemergence; assay type: in vivo, Setaria viridis; conditions: preemergence, 0 to 100 scale (0 no effect, 100 complete control)
Method in brief: as §1

kochia [5] = assay: Test C preemergence; assay type: in vivo, Bassia scoparia; conditions: preemergence, 0 to 100 scale (0 no effect, 100 complete control)
Method in brief: as §1

oat, wild [6] = assay: Test C preemergence; assay type: in vivo, Avena fatua; conditions: preemergence, 0 to 100 scale (0 no effect, 100 complete control)
Method in brief: as §1

pigweed, palmer [7] = assay: Test C preemergence; assay type: in vivo, Amaranthus palmeri; conditions: preemergence, 0 to 100 scale (0 no effect, 100 complete control)
Method in brief: as §1

ragweed [8] = assay: Test C preemergence; assay type: in vivo, Ambrosia artemisiifolia; conditions: preemergence, 0 to 100 scale (0 no effect, 100 complete control)
Method in brief: as §1

ryegrass, Italian [9] = assay: Test C preemergence; assay type: in vivo, Lolium multiflorum; conditions: preemergence, 0 to 100 scale (0 no effect, 100 complete control)
Method in brief: as §1

soybean [10] = assay: Test C preemergence; assay type: in vivo, Glycine max; conditions: preemergence, 0 to 100 scale (0 no effect, 100 complete control)
Method in brief: as §1

wheat [11] = assay: Test C preemergence; assay type: in vivo, Triticum aestivum; conditions: preemergence, 0 to 100 scale (0 no effect, 100 complete control)
Method in brief: as §1

barnyardgrass [12] = assay: Test C postemergence; assay type: in vivo, Echinochloa crusgalli; conditions: 10 days
Method in brief: as §1

blackgrass [13] = assay: Test C postemergence; assay type: in vivo, Alopecurus myosuroides; conditions: 10 days
Method in brief: as §1

corn [14] = assay: Test C postemergence; assay type: in vivo, Zea mays; conditions: 10 days
Method in brief: as §1

green foxtail [15] = assay: Test C postemergence; assay type: in vivo, Setaria viridis; conditions: 10 days
Method in brief: as §1

kochia [16] = assay: Test C postemergence; assay type: in vivo, Bassia scoparia; conditions: 125 g ai/ha, postemergence, 10 days; 0 to 100 scale, 0 no effect, 100 complete control
Method in brief: as §1

oat, wild [17] = assay: Test C postemergence; assay type: in vivo, Avena fatua; conditions: 125 g ai/ha, postemergence, 10 days; 0 to 100 scale, 0 no effect, 100 complete control
Method in brief: as §1

pigweed, palmer [18] = assay: Test C postemergence; assay type: in vivo, Amaranthus palmeri; conditions: 125 g ai/ha, postemergence, 10 days; 0 to 100 scale, 0 no effect, 100 complete control
Method in brief: as §1

ragweed [19] = assay: Test C postemergence; assay type: in vivo, Ambrosia artemisiifolia; conditions: 125 g ai/ha, postemergence, 10 days; 0 to 100 scale, 0 no effect, 100 complete control
Method in brief: as §1

ryegrass, Italian [20] = assay: Test C postemergence; assay type: in vivo, Lolium multiflorum; conditions: 125 g ai/ha, postemergence, 10 days; 0 to 100 scale, 0 no effect, 100 complete control
Method in brief: as §1

soybean [21] = assay: Test C postemergence; assay type: in vivo, Glycine max; conditions: 125 g ai/ha, postemergence, 10 days; 0 to 100 scale, 0 no effect, 100 complete control
Method in brief: as §1

wheat [22] = assay: Test C postemergence; assay type: in vivo, Triticum aestivum; conditions: 125 g ai/ha, postemergence, 10 days; 0 to 100 scale, 0 no effect, 100 complete control
Method in brief: as §1

galium = assay: Test C postemergence; assay type: in vivo, Galium aparine; conditions: 10 days
Method in brief: as §1

horseweed = assay: Test C postemergence; assay type: in vivo, Erigeron canadensis; conditions: 10 days
Method in brief: as §1

barnyardgrass [23] = assay: Test D flooded paddy test; assay type: in vivo, Echinochloa crus-galli; conditions: 250 g ai/ha, applied to paddy water, visual rating after 13 to 14 days, scale 0 to 100 (0 no effect, 100 complete control)
Method in brief: (§2)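 Plants at the 2-leaf stage were grown in pots flooded to 3 cm, and compound was applied directly into the paddy water, with depth kept throughout. After 13–14 days in a greenhouse, injury was rated visually against untreated controls on a 0–100 scale (100 = complete control); a dash means not tested.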

ducksalad = assay: Test D flooded paddy test; assay type: in vivo, Heteranthera limosa; conditions: 250 g ai/ha, applied to paddy water, visual rating after 13 to 14 days, scale 0 to 100 (0 no effect, 100 complete control)
Method in brief: as §2

rice = assay: Test D flooded paddy test; assay type: in vivo, Oryza sativa; conditions: 250 g ai/ha, applied to paddy water, visual rating after 13 to 14 days, scale 0 to 100 (0 no effect, 100 complete control)
Method in brief: as §2

sedge, umbrella = assay: Test D flooded paddy test; assay type: in vivo, Cyperus difformis; conditions: 250 g ai/ha, applied to paddy water, visual rating after 13 to 14 days, scale 0 to 100 (0 no effect, 100 complete control)
Method in brief: as §2

[24] = 125 g ai/ha, postemergence, 0 to 100 scale, 0 no effect, 100 complete control
[25] = Postemergence, 500 g ai/ha, visual 0 to 100 scale (0 no effect, 100 complete control)

CCc1ccc(-n2cnc(C(C)(C)O)n2)cc1C(=O)N1C[C@H](C)Oc2c(Cl)cccc21 [Compound 277]
Plant response rating, Barnyardgrass (barnyardgrass [1]): 100
Barnyardgrass plant response rating (barnyardgrass [1]): 100
Plant response rating, Blackgrass (blackgrass [2]): 90
Blackgrass plant response rating (blackgrass [2]): 80
Corn plant response rating (corn [3]; 500 g ai/ha): 80
Corn plant response rating (corn [3]; Test C, 125 g ai/ha): 50
Foxtail, Green plant response rating (green foxtail [4]; 500 g ai/ha): 100
Foxtail, Green plant response rating (green foxtail [4]; Test C, 125 g ai/ha): 100
Kochia plant response rating (kochia [5]; 500 g ai/ha): 90
Kochia plant response rating (kochia [5]; Test C, 125 g ai/ha): 70
Oat, Wild plant response rating (oat, wild [6]; 500 g ai/ha): 90
Oat, Wild plant response rating (oat, wild [6]; Test C, 125 g ai/ha): 80
Pigweed, Palmer plant response rating (pigweed, palmer [7]; 500 g ai/ha): 100
Pigweed, Palmer plant response rating (pigweed, palmer [7]; Test C, 125 g ai/ha): 100
Ragweed plant response rating (ragweed [8]; 500 g ai/ha): 70
Ragweed plant response rating (ragweed [8]; Test C, 125 g ai/ha): 30
Ryegrass, Italian plant response rating (ryegrass, Italian [9]; 500 g ai/ha): 100
Ryegrass, Italian plant response rating (ryegrass, Italian [9]; Test C, 125 g ai/ha): 80
Soybean plant response rating (soybean [10]; 500 g ai/ha): 100
Soybean plant response rating (soybean [10]; Test C, 125 g ai/ha): 90
Wheat plant response rating (wheat [11]; 500 g ai/ha): 80
Wheat plant response rating (wheat [11]; Test C, 125 g ai/ha): 50
Plant response rating, Barnyardgrass (barnyardgrass [12]; [24]): 100
Plant response rating, Barnyardgrass (barnyardgrass [12]; [25]): 100
Plant response rating, Blackgrass (blackgrass [13]; [24]): 80
Plant response rating, Blackgrass (blackgrass [13]; [25]): 90
Plant response rating, Corn (corn [14]; [24]): 90
Plant response rating, Corn (corn [14]; [25]): 100
Plant response rating, Foxtail, Green (green foxtail [15]; [24]): 90
Plant response rating, Foxtail, Green (green foxtail [15]; [25]): 90
Plant response rating, Kochia (kochia [16]): 70
Plant response rating, Oat, Wild (oat, wild [17]): 80
Plant response rating, Pigweed, Palmer (pigweed, palmer [18]): 80
Plant response rating, Ragweed (ragweed [19]): 80
Plant response rating, Ryegrass, Italian (ryegrass, Italian [20]): 90
Plant response rating, Soybean (soybean [21]): 100
Plant response rating, Wheat (wheat [22]): 50
Plant response rating, Galium (galium; [24]): 100
Plant response rating, Galium (galium; [25]): 100
Plant response rating, Horseweed (horseweed; [24]): 0
Plant response rating, Horseweed (horseweed; [25]): 30
Plant response rating, Barnyardgrass (Flood) (barnyardgrass [23]): 55
Plant response rating, Ducksalad (Flood) (ducksalad): 40
Plant response rating, Rice (Flood) (rice): 15
Plant response rating, Sedge, Umbrella (Flood) (sedge, umbrella): 98

Cc1cccc2c1O[C@@H](C)CN2C(=O)c1cccc(-n2cnc(C(C)(C)O)n2)c1 [Compound 278]
Plant response rating, Barnyardgrass (barnyardgrass [1]): 100
Barnyardgrass plant response rating (barnyardgrass [1]): 100
Plant response rating, Blackgrass (blackgrass [2]): 90
Blackgrass plant response rating (blackgrass [2]): 90
Corn plant response rating (corn [3]; 500 g ai/ha): 80
Foxtail, Green plant response rating (green foxtail [4]; 500 g ai/ha): 100
Foxtail, Green plant response rating (green foxtail [4]; Test C, 125 g ai/ha): 100
Kochia plant response rating (kochia [5]; 500 g ai/ha): 100
Kochia plant response rating (kochia [5]; Test C, 125 g ai/ha): 90
Oat, Wild plant response rating (oat, wild [6]; 500 g ai/ha): 90
Oat, Wild plant response rating (oat, wild [6]; Test C, 125 g ai/ha): 80
Pigweed, Palmer plant response rating (pigweed, palmer [7]; 500 g ai/ha): 100
Pigweed, Palmer plant response rating (pigweed, palmer [7]; Test C, 125 g ai/ha): 100
Ragweed plant response rating (ragweed [8]; 500 g ai/ha): 80
Ragweed plant response rating (ragweed [8]; Test C, 125 g ai/ha): 70
Ryegrass, Italian plant response rating (ryegrass, Italian [9]; 500 g ai/ha): 100
Ryegrass, Italian plant response rating (ryegrass, Italian [9]; Test C, 125 g ai/ha): 80
Soybean plant response rating (soybean [10]; 500 g ai/ha): 100
Soybean plant response rating (soybean [10]; Test C, 125 g ai/ha): 90
Wheat plant response rating (wheat [11]; 500 g ai/ha): 100
Wheat plant response rating (wheat [11]; Test C, 125 g ai/ha): 50
Plant response rating, Barnyardgrass (barnyardgrass [12]; [24]): 50
Plant response rating, Barnyardgrass (barnyardgrass [12]; [25]): 90
Plant response rating, Blackgrass (blackgrass [13]; [24]): 90
Plant response rating, Blackgrass (blackgrass [13]; [25]): 90
Plant response rating, Corn (corn [14]; [24]): 50
Plant response rating, Corn (corn [14]; [25]): 90
Plant response rating, Foxtail, Green (green foxtail [15]; [24]): 50
Plant response rating, Foxtail, Green (green foxtail [15]; [25]): 90
Plant response rating, Kochia (kochia [16]): 80
Plant response rating, Oat, Wild (oat, wild [17]): 80
Plant response rating, Pigweed, Palmer (pigweed, palmer [18]): 50
Plant response rating, Ragweed (ragweed [19]): 70
Plant response rating, Ryegrass, Italian (ryegrass, Italian [20]): 80
Plant response rating, Soybean (soybean [21]): 100
Plant response rating, Wheat (wheat [22]): 70
Plant response rating, Galium (galium; [24]): 100
Plant response rating, Galium (galium; [25]): 100
Plant response rating, Horseweed (horseweed; [24]): 0
Plant response rating, Horseweed (horseweed; [25]): 50
Plant response rating, Barnyardgrass (Flood) (barnyardgrass [23]): 45
Plant response rating, Ducksalad (Flood) (ducksalad): 100
Plant response rating, Rice (Flood) (rice): 15
Plant response rating, Sedge, Umbrella (Flood) (sedge, umbrella): 100
